IC50 data for 13 compounds are collected here from patent US20250215030A1, “STAT MODULATORS AND USES THEREOF” (Recludix Pharma, Inc., priority 2022, published 2025).

In test [1] the target is T1, Recombinant STAT3 protein (STAT3(G127-I722)) (Homo sapiens, UniProt P40763).
T1 construct: STAT3(G127-I722)
The test is described as follows: STAT3 Fluorescence Polarization (FP) Assay. The class given is binding. The note with it: STAT3(G127-I722) 25 nM, probe 5-FAM-GpYLPQTV-NH2 2 nM, 45-minute incubation. The method in brief:
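Serially diluted compounds (1% DMSO) were mixed with 2 nM fluorescent phosphotyrosine peptide and 25 nM STAT3 construct G127-I722, pH 7.4, incubated 45 min at room temperature. IC50 values from fitted polarization curves are reported as categories A (≤100 nM), B, C, D (>10 μM).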
For orientation: Fluorescence polarisation rises when a labelled molecule tumbles more slowly, as on binding a larger partner.

Test [2] deals with T2, Recombinant STAT6 protein (STAT6(W123-T658)) (Homo sapiens, UniProt P42226).
T2 construct: STAT6(W123-T658)
T2 sequence (P42226 123-658): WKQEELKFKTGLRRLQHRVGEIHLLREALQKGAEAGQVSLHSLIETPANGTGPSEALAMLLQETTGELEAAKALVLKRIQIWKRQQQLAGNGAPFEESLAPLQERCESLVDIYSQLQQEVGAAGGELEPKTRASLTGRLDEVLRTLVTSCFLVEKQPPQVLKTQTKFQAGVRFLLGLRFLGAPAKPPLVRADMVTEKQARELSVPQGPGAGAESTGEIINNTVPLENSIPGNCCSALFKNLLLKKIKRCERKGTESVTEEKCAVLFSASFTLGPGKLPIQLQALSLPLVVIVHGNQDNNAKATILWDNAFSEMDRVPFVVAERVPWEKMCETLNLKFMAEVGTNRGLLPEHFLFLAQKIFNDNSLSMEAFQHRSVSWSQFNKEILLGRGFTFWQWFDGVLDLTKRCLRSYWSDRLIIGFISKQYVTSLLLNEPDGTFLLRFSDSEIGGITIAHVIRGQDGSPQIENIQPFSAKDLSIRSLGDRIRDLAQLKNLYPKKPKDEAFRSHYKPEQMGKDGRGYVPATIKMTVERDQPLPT
Kind of test: STAT6 Fluorescence Polarization (FP) Assay. The note with it: STAT6(W123-T658) 250 nM, probe 5-FAM-ApYKPFQDLI-NH2 2 nM, 45-minute incubation. The class given is binding. The method in brief: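 Competitive displacement of a fluorescent phosphotyrosine peptide (2 nM) from recombinant STAT6 W123-T658 (250 nM), 45 min at room temperature in 10 mM HEPES pH 7.4, 50 mM NaCl, 2 mM DTT. mP fitted against log compound for IC50, grouped A (≤300 nM) to D (>30 μM).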

T1 sequence (P40763 127-722, species assumed): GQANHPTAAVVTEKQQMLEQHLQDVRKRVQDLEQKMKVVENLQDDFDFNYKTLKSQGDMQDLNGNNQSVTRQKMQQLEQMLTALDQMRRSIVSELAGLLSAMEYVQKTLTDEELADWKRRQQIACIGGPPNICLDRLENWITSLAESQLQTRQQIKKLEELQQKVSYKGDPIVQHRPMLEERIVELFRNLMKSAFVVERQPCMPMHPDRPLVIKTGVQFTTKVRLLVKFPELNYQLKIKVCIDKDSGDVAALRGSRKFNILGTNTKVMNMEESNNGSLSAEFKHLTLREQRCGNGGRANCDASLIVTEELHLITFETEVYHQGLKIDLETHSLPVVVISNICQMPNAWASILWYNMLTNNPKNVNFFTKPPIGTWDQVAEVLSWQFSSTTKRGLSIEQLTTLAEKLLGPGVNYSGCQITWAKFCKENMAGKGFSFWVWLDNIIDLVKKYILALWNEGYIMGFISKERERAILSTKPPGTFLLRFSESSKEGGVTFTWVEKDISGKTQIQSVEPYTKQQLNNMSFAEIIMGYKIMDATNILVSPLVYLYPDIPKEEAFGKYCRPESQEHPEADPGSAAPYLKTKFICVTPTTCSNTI

For `N#C[C@@H]1CN(C(=O)[C@@H]2CC[C@@H]3C[C@@H]4C[C@@H]4C[C@H](NC(=O)c4cc5cc(C(F)(F)P(=O)(O)O)ccc5s4)C(=O)N32)C[C@H]1c1ccccc1` (relative stereo) [Compound 11, ((2-(((3S,6S,7aR,8aS,9aR)-3-((rel-trans)-3-cyano-4-phenylpyrrolidine-1-carbonyl)-5-oxodecahydro-1H-cyclopropa[d]pyrrolo[1,2-a]azocin-6-yl)carbamoyl)benzo[b]thiophen-5-yl)difluoromethyl)phosphonic acid], the IC50 – broadly, the point on the concentration scale where inhibition reaches its midpoint – in test [1] was 0.1 to 1 µM; in test [2], at most 0.3 µM.
The corresponding values for `CN(C)c1ccncc1C1CN(C(=O)[C@@H]2CC[C@@H]3C[C@@H]4C[C@@H]4C[C@H](NC(=O)c4cc5cc(CP(=O)(O)O)ccc5s4)C(=O)N32)C1` [Example 393, ((2-(((3S,6S,7aR,8aS,9aR)-3-(3-(4-(dimethylamino)pyridin-3-yl)azetidine-1-carbonyl)-5-oxodecahydro-1H-cyclopropa[d]pyrrolo[1,2-a]azocin-6-yl)carbamoyl)benzo[b]thiophen-5-yl)methyl)phosphonic acid] are under 0.1 µM and over 30 µM.
The corresponding values for `O=C(N[C@H]1C[C@@H]2C[C@@H]2C[C@H]2CC[C@@H](C(=O)N3CC(Cc4cc(F)ccc4F)C3)N2C1=O)c1cc2cc(CP(=O)(O)O)ccc2s1` [Example 378, ((2-(((3S,6S,7aS,8aR,9aR)-3-(3-(2,5-difluorobenzyl)azetidine-1-carbonyl)-5-oxodecahydro-1H-cyclopropa[d]pyrrolo[1,2-a]azocin-6-yl)carbamoyl)benzo[b]thiophen-5-yl)methyl)phosphonic acid] are 1 to 10 µM and 3 to 30 µM.
The corresponding values for `Cc1ccncc1C1CN(C(=O)[C@@H]2CC[C@@H]3C[C@@H]4C[C@@H]4C[C@H](NC(=O)c4cc5cc(CP(=O)(O)O)ccc5s4)C(=O)N32)C1` [Example 243, ((2-(((3S,6S,7aR,8aS,9aR)-3-(3-(4-methylpyridin-3-yl)azetidine-1-carbonyl)-5-oxodecahydro-1H-cyclopropa[d]pyrrolo[1,2-a]azocin-6-yl)carbamoyl)benzo[b]thiophen-5-yl)methyl)phosphonic acid] are under 0.1 µM and over 30 µM.
Consider `O=C(N[C@H]1C[C@@H]2C[C@@H]2C[C@H]2CC[C@@H](C(=O)N3CC(c4cnccn4)C3)N2C1=O)c1cc2cc(C(F)(F)P(=O)(O)O)ccc2s1` [Compound 50, (difluoro(2-(((3S,6S,7aS,8aR,9aR)-5-oxo-3-(3-(pyrazin-2-yl)azetidine-1-carbonyl)decahydro-1H-cyclopropa[d]pyrrolo[1,2-a]azocin-6-yl)carbamoyl)benzo[b]thiophen-5-yl)methyl)phosphonic acid], for which the IC50 in test [1] is under 0.1 µM; in test [2], 3 to 30 µM.
The corresponding values for `CS(=N)(=O)CC1CN(C(=O)[C@@H]2CC[C@@H]3C[C@@H]4C[C@@H]4C[C@H](NC(=O)c4cc5cc(C(F)(F)P(=O)(O)O)ccc5s4)C(=O)N32)C1` (stereo partly drawn) [Compound 83, (difluoro(2-(((3S,6S,7aR,8aS,9aR)-3-(3-((S-methysulfonimidoyl)methyl)azetidine-1-carbonyl)-5-oxodecahydro-1H-cyclopropa[d]pyrrolo[1,2-a]azocin-6-yl)carbamoyl)benzo[b]thiophen-5-yl)methyl)phosphonic acid] are under 0.1 µM and 3 to 30 µM.
In the same order, the values of `CC(=O)N1CC[C@@H]2[C@H]1CN2C(=O)[C@@H]1CC[C@@H]2C[C@H]3C[C@H]3C[C@H](NC(=O)c3cc4cc(C(F)P(=O)(O)O)ccc4s3)C(=O)N21` (stereo partly drawn) [Example 290, ((2-(((3S,6S,7aS,8aR,9aR)-3-((1R,5R)-2-acetyl-2,6-diazabicyclo[3.2.0]heptane-6-carbonyl)-5-oxodecahydro-1H-cyclopropa[d]pyrrolo[1,2-a]azocin-6-yl)carbamoyl)benzo[b]thiophen-5-yl)fluoromethyl)phosphonic acid] are 0.1 to 1 µM and 3 to 30 µM.
In the case of `C[C@@]12C[C@H]3CC[C@@H](C(=O)N4CC(c5cccnc5)C4)N3C(=O)[C@@H](NC(=O)c3cc4cc(C(F)(F)P(=O)(O)O)ccc4s3)C[C@@H]1C2` [Example 230, (difluoro(2-(((3S,6S,7aS,8aR,9aR)-8a-methyl-5-oxo-3-(3-(pyridin-3-yl)azetidine-1-carbonyl)decahydro-1H-cyclopropa[d]pyrrolo[1,2-a]azocin-6-yl)carbamoyl)benzo[b]thiophen-5-yl)methyl)phosphonic acid], the IC50 in test [1] was under 0.1 µM; in test [2] it was 0.3 to 3 µM.
The corresponding values for `O=C(N[C@H]1C[C@@H]2C[C@@H]2C[C@H]2CC[C@@H](C(=O)N3CCN(C(=O)[C@H]4CCOC4)CC3)N2C1=O)c1cc2cc(C(F)(F)P(=O)(O)O)ccc2s1` [Example 8, (Difluoro(2-(((3S,6S,7aS,8aR,9aR)-5-oxo-3-(4-((S)-tetrahydrofuran-3-carbonyl)piperazine-1-carbonyl)decahydro-1H-cyclopropa[d]pyrrolo[1,2-a]azocin-6-yl)carbamoyl)benzo[b]thiophen-5-yl)methyl)phosphonic acid] are 0.1 to 1 µM and 3 to 30 µM.
In the same order, the values of `CN=S(C)(=O)CC1CN(C(=O)[C@@H]2CC[C@@H]3C[C@@H]4C[C@@H]4C[C@H](NC(=O)c4cc5cc(C(F)(F)P(=O)(O)O)ccc5s4)C(=O)N32)C1` (stereo partly drawn) [Compound 72, ((2-(((3S,6S,7aR,8aS,9aR)-3-(3-((N,S-dimethylsulfonimidoyl)methyl)azetidine-1-carbonyl)-5-oxodecahydro-1H-cyclopropa[d]pyrrolo[1,2-a]azocin-6-yl)carbamoyl)benzo[b]thiophen-5-yl)difluoromethyl)phosphonic acid] are under 0.1 µM and 3 to 30 µM.
Regarding `O=C(N[C@H]1C[C@@H]2C[C@@H]2C[C@H]2CC[C@@H](C(=O)N3CC[C@H](N4CCOCC4)C3)N2C1=O)c1cc2cc(C(F)(F)P(=O)(O)O)ccc2s1` [Compound 17, (difluoro(2-(((3S,6S,7aS,8aR,9aR)-3-((S)-3-morpholinopyrrolidine-1-carbonyl)-5-oxodecahydro-1H-cyclopropa[d]pyrrolo[1,2-a]azocin-6-yl)carbamoyl)benzo[b]thiophen-5-yl)methyl)phosphonic acid], the 50% inhibitory concentration (IC50) in test [1] was in the range of 0.1 to 1 µM; in test [2] it was 3 to 30 µM.
As to `CC(=O)N1CC[C@H](NC(=O)[C@@H]2CC[C@@H]3C[C@H]4C[C@H]4C[C@H](NC(=O)c4cc5cc(C(F)(F)P(=O)(O)O)ccc5s4)C(=O)N32)C1` [Compound 117, ((2-(((3S,6S,7aS,8aR,9aR)-3-(((S)-1-acetylpyrrolidin-3-yl)carbamoyl)-5-oxodecahydro-1H-cyclopropa[d]pyrrolo[1,2-a]azocin-6-yl)carbamoyl)benzo[b]thiophen-5-yl)difluoromethyl)phosphonic acid], the IC50 was under 0.1 µM in test [1] and 0.3 to 3 µM in test [2].
`O=C(N[C@H]1C[C@@H]2C[C@@H]2C[C@H]2CC[C@@H](C(=O)N3CCN(C4COC4)c4ccccc43)N2C1=O)c1cc2cc(C(F)P(=O)(O)O)ccc2s1` (stereo partly drawn) [Example 387, (fluoro(2-(((3S,6S,7aS,8aR,9aR)-3-(4-(oxetan-3-yl)-1,2,3,4-tetrahydroquinoxaline-1-carbonyl)-5-oxodecahydro-1H-cyclopropa[d]pyrrolo[1,2-a]azocin-6-yl)carbamoyl)benzo[b]thiophen-5-yl)methyl)phosphonic acid]: the half-maximal inhibitory concentration (IC50) in test [1] was in the range of 1 to 10 µM; in test [2], 3 to 30 µM.
